Like-named read-outs stand apart in the source and are kept apart here.
Legend:
SW1573 = assay: Mini cell panel: inhibition of proliferation of SW1573 cells; type: cell-based
Source text: (§1) Test 9: Mini Cell Panel: Assay for Inhibitory Activity of Compounds against Proliferation of 20 Tumor Cell Lines
(§2) Materials and Cells: Fifteen MTAP(-/-) cell lines and five MTAP wild-type cell lines were purchased from ATCC (USA). Cell culture media, fetal bovine serum (FBS), and penicillin-streptomycin were purchased from Thermo Fisher Scientific (USA). 384-well plates were purchased from PerkinElmer (USA). The CellTiter-Glo assay kit was purchased from Promega (USA). Paclitaxel was used as the control compound.

SW780 = assay: Mini cell panel: inhibition of proliferation of SW780 cells; type: cell-based
Source text: as §1, §2

ACHN = assay: Mini cell panel: inhibition of proliferation of ACHN cells; type: cell-based; settings: MTAP (-/-)
Source text: as §1, §2

DOHH-2 = assay: Mini cell panel: inhibition of proliferation of DOHH-2 cells; type: cell-based
Source text: as §1, §2

LU99 MTAP(-/-) cells = assay: Inhibition of proliferation of LU99 MTAP(-/-) cells (CellTiter-Glo); type: cell-based; settings: cell proliferation, 6 days
Protocol: Test 3: Compound's inhibitory activity on proliferation of LU99 MTAP (-/-) cells.
Materials and Cells: The LU99 MTAP(-/-) cell line was purchased from Cobioer Biosciences (China). Cell culture media and fetal bovine serum (FBS) were purchased from Thermo Fisher Scientific (USA). 384-well plates were purchased from PerkinElmer (USA). The CellTiter-Glo assay kit was purchased from Promega (USA).
Cell Culture: LU99 MTAP(-/-) cells were cultured in a medium supplemented with 10% fetal bovine serum (FBS) at 37°C with 5% CO2. Only cells in the logarithmic growth phase were used for experiments.
Cell Proliferation Inhibition Assay: The antiproliferative activity of the compounds against LU99 MTAP(-/-) cells was assessed using the CellTiter-Glo assay kit. Cell suspensions were adjusted to the appropriate density and seeded into 384-well plates at a volume of 40 µL per well, then incubated overnight at 37°C with 5% CO2. Compounds (40 nL) were added to each well to achieve final concentrations ranging from 0 to 1,000 nM (starting concentration 1,000 nM, 2.5-fold serial dilutions, 10 dose points), with a final DMSO concentration of 0.2%. The cell plates were incubated at 37°C with 5% CO2 for 6 days. Subsequently, 40 µL of CellTiter-Glo reagent was added to measure cell viability.

PSN-1 = assay: Mini cell panel: inhibition of proliferation of PSN-1 cells; type: cell-based
Source text: as §1, §2

15 MTAP(-/-) cell lines = assay: Mini cell panel: summary over the MTAP(-/-) cell lines; type: cell-based; settings: for selectivity, calculated based on the median values: MTAP wild-type vs MTAP(-/-) cell lines
Source text: as §1, §2

Ht 1080 = assay: Mini cell panel: inhibition of proliferation of Ht 1080 cells; type: cell-based
Source text: as §1
as §2, with “Paclitaxel was used as the control compound.” left out

SU-DHL-4 = assay: Mini cell panel: inhibition of proliferation of SU-DHL-4 cells; type: cell-based
Source text: as §1, §2

[1] = tested on: five MTAP wild-type cell lines; assay: Mini cell panel: summary over the MTAP wild-type cell lines; type: cell-based
Source text: as §1, §2

MKN-45 = assay: Mini cell panel: inhibition of proliferation of MKN-45 cells; type: cell-based
Source text: as §1, §2

U87MG = assay: Mini cell panel: inhibition of proliferation of U87MG cells; type: cell-based; settings: MTAP (-/-)
Source text: as §1, §2

[2] = Mouse pharmacokinetic experiment (IV and PO, plasma); type: in vivo, ICR male mice; settings: ICR mice; for AUClast / bioavailability: plasma; for bioavailability: male, mouse, read-out: Bioavailability F (%)
Protocol: II. Mouse Pharmacokinetic Experiment
The compounds used in this experiment are specific embodiments of the present invention, with reference to compound AMG473 as an example from Amgen's patent WO 2022/169948A1, identified as example 473.
ICR male mice, N=3/group; sourced from Zhejiang Vital River Laboratory Animal Technology Co., Ltd.
3. Drug Preparation and Administration
Single oral (PO) administration to ICR mice: Compounds were dissolved in dimethyl sulfoxide, added to polyethylene glycol 400 and sterile water, and then adjusted to a clear solution with a small amount of 1 mol/L hydrochloric acid. After overnight fasting, the mice were orally gavaged with a dose of 10 mg/kg. Single intravenous (IV) administration to ICR mice: Compounds were dissolved in dimethyl sulfoxide, added to polyethylene glycol 400 and sterile water, and then adjusted to a clear solution with a small amount of 1 mol/L hydrochloric acid. After overnight fasting, the mice received tail vein injections with a dose of 3 mg/kg.
Approximately 30 µL/time point blood samples were collected via the tail vein. Potassium ethylenediaminetetraacetate was used as an anticoagulant, and samples were centrifuged at 4000 g/min for 5 minutes at 4°C within 1 hour. Blood sampling time points were 0.0833 (IV), 0.25, 0.5, 1, 2, 4, 6, 8, 24 hours. Samples were stored in a -20°C freezer.
Plasma samples (30µL, 10µL sample + 20µL blank plasma) were mixed with 200µL ice-cold acetonitrile containing internal standards. After vortexing for 30 seconds, samples were centrifuged at 4000g/min for 20 minutes. One hundred microliters of the supernatant were transferred to a 96-well plate, followed by the addition of 200µL ultrapure water. After vortexing for 30 seconds, 5µL or 10µL were injected into LC-MS/MS for analysis. Table 7: Pharmacokinetic Data

MDA-MB-231 = assay: Mini cell panel: inhibition of proliferation of MDA-MB-231 cells; type: cell-based
Source text: as §1, §2

Calu-1 = assay: Mini cell panel: inhibition of proliferation of Calu-1 cells; type: cell-based
Source text: as §1, §2

BxPc-3 = assay: Mini cell panel: inhibition of proliferation of BxPc-3 cells; type: cell-based
Source text: as §1, §2

A549 = assay: Mini cell panel: inhibition of proliferation of A549 cells; type: cell-based
Source text: as §1, §2

[3] = read-out: median IC50, 15 MTAP(-/-) cell lines
[4] = read-out: median IC50, MTAP wild-type cells
[5] = Homo sapiens, SW1573, MTAP (-/-)
[6] = Homo sapiens, SW780, MTAP (-/-)
[7] = Homo sapiens, DOHH-2, MTAP (-/-)
[8] = Homo sapiens, HT-1080, MTAP (-/-)
[9] = Homo sapiens, SU-DHL-4, MTAP Wild type
[10] = span over the cell lines, read-out: IC50 values (range) against MTAP wild-type cells
[11] = Homo sapiens, MKN-45, MTAP (-/-)
[12] = Homo sapiens, MDA-MB-231, MTAP (-/-)
[13] = Homo sapiens, Calu-1, MTAP Wild type
[14] = Homo sapiens, BXPC-3, MTAP (-/-)

Row | Compound | bioavailability ([2]; PO(10mg/kg) vs IV(3mg/kg)) [%] | selectivity, calculated based on the median values (15 MTAP(-/-) cell lines) [fold] | IC50 (15 MTAP(-/-) cell lines; [3]) [nM] | IC50 [1, 4] [nM] | IC50 (LU99 MTAP(-/-) cells; Homo sapiens, Lu-99, 144 h) [nM] | IC50 (SW1573; [5]) [nM] | IC50 (SW780; [6]) [nM] | IC50 (ACHN; Homo sapiens, ACHN) [nM] | IC50 (DOHH-2; [7]) [nM] | IC50 (PSN-1; Homo sapiens, PSN1, MTAP (-/-)) [nM] | IC50 (Ht 1080; [8]) [nM] | IC50 (SU-DHL-4; [9]) [nM] | IC50 [1, 10] [nM] | IC50 (MKN-45; [11]) [nM] | IC50 (U87MG; Homo sapiens, U-87 MG) [nM] | IC50 (MDA-MB-231; [12]) [nM] | IC50 (Calu-1; [13]) [nM] | IC50 (BxPc-3; [14]) [nM] | IC50 (A549; Homo sapiens, A549, MTAP (-/-)) [nM] | other results
1 | (S)-4-amino-7-fluoro-N-methyl-N-(6-(triflu oromethyl)-2,3-dihydr obenzofuran-3-yl)imi dazo[1,5-a]quinoxalin e-8-carboxamide [Example 29] | – | 77.7 | 42.4 | 3300 | – | – | – | – | – | – | – | – | – | – | – | – | – | – | – | IC50 (SW1573; MTAP (-/-)): 47.3 nM; IC50 (SW780; MTAP (-/-)): 660 nM; IC50 (ACHN): 2.9 nM; IC50 (DOHH-2; MTAP (-/-)): 11.6 nM; IC50 (LU99 MTAP(-/-) cells): 10.7 nM; IC50 (PSN-1; MTAP (-/-)): 24.1 nM; IC50 (Ht 1080; MTAP (-/-)): 36.7 nM; IC50 (SU-DHL-4; MTAP Wild type): > 10000 nM; IC50 (MKN-45; MTAP (-/-)): 39.8 nM; IC50 (U87MG): 1040 nM; T1/2 ([2]; IV(3mg/kg)): 4.38 h; AUClast ([2]; IV(3mg/kg)): 12925 ng·h/mL; T1/2 ([2]; PO(10mg/kg)): 4.16 h; Bioavailability F (%) ([2]; PO(10mg/kg) vs IV(3mg/kg)): 102%; AUClast ([2]; PO(10mg/kg)): 43906 ng·h/mL; IC50 (MDA-MB-231; MTAP (-/-)): 390 nM; IC50 (Calu-1; MTAP Wild type): 2300 nM; IC50 (BxPc-3; MTAP (-/-)): 57.2 nM; IC50 (A549; MTAP (-/-)): 8.5 nM
2 | CN(C(=O)c1cc2c(cn1)nc(N)c1cncn12)[C@@H]1COc2cc(C(F)(F)F)ccc21 [Example 4, (S)-4-amino-N-methy 1-N-(6-(trifluoromethy 1)-2,3-dihydrobenzofuran-3-yl)imidazo[1,5-a]pyrido[3,4-e]pyrazine-8-carboxamide] | 77 | 44.2 | 38.8 | 1710 | – | 662 | 177 | 4.7 | 19.3 | 12.6 | 2.4 | 1260 | 407 to 6600 | 17.8 | 148 | 955 | 3370 | 15.2 | 20.2 | IC50 (15 MTAP(-/-) cell lines; span over the cell lines, read-out: IC50 values (range) against the 15 MTAP(-/-) cell lines): ≥ 2.4 nM
3 | CN(C(=O)c1ccc2nc(N)c3cncn3c2c1)[C@@H]1COc2cc(C(F)(F)F)ccc21 [Example 107, (S)-4-amino-N-methy 1-N-(6-(trifluoromethy 1)-2,3-dihydrobenzofuran-3-yl)imidazo[1,5-a]quinoxaline-8-carboxamide] | 119 | 58.8 | 56.6 | 3330 | 13.2 | 44.4 | 210 | 2.7 | 33.2 | 30.9 | 10.4 | 3100 | ≥ 781 | 43.1 | 327 | 2060 | > 10000 | 32.7 | 69.1 | –

More lines, main results first:

Row | bioavailability ([2]; PO(10mg/kg) vs IV(3mg/kg)) [%] | Compound | selectivity, calculated based on the median values (15 MTAP(-/-) cell lines) [fold] | IC50 (15 MTAP(-/-) cell lines; [3]) [nM] | IC50 [1, 4] [nM] | IC50 (LU99 MTAP(-/-) cells; Homo sapiens, Lu-99, 144 h) [nM] | IC50 (SW1573; [5]) [nM] | IC50 (SW780; [6]) [nM] | IC50 (ACHN; Homo sapiens, ACHN) [nM] | IC50 (DOHH-2; [7]) [nM] | IC50 (PSN-1; Homo sapiens, PSN1, MTAP (-/-)) [nM] | IC50 (Ht 1080; [8]) [nM] | IC50 (SU-DHL-4; [9]) [nM] | IC50 [1, 10] [nM] | IC50 (MKN-45; [11]) [nM] | IC50 (U87MG; Homo sapiens, U-87 MG) [nM] | IC50 (MDA-MB-231; [12]) [nM] | IC50 (Calu-1; [13]) [nM] | IC50 (BxPc-3; [14]) [nM] | IC50 (A549; Homo sapiens, A549, MTAP (-/-)) [nM] | other results
4 | 131 | [2H]C([2H])([2H])N(C(=O)c1ccc2nc(N)c3cncn3c2c1)[C@@H]1COc2cc(C(F)(F)F)ccc21 [Example 16, (S)-4-amino-N-(methyl-d3)-N-(6-(trifluoromethyl)-2,3-dihydrobenzofuran-3-yl)imidaz o[1,5-a]quinoxaline-8-carboxamide] | – | – | – | 12.9 | – | – | – | – | – | – | – | – | – | – | – | – | – | – | –
5 | 257 | [2H]C([2H])([2H])N(C(=O)c1cc2c(cc1F)nc(N)c1cncn12)[C@@H]1COc2cc(C(F)(F)F)ccc21 [Example 41, (S)-4-amino-7-fluoro-N-(methyl-d3)-N-(6-(trifluoromethyl)-2,3-di hydrobenzofuran-3-yl)imidazo[1,5-a]quinox aline-8-carboxamide] | – | – | – | 9.56 | – | – | – | – | – | – | – | – | – | – | – | – | – | – | –

Source: EP4775208A1, “USE OF PRMT5 INHIBITOR IN TREATMENT OF TUMORS OR CANCERS” (Apeiron Therapeutics (Hong Kong) Ltd., priority 2023, dated 2025)
